The source of these data is US11028084B2, “Selective inhibitors of gentotoxic steress-induced IKK/NF-κB pathways” (Max-Delbrück-Centrum für Molekulare Medizin in der …, priority 2016, dated 2021).

For one assay, the system named is U2OS cells. Briefly: qRT-PCR of anti- and pro-apoptotic genes after γ-IR, U2OS cells. It counts as cell-based, human. The protocol:
FIG. 15: (A), (B) U2OS cells were pre-treated with DMSO or MW01 and irradiated. After 8 h mRNA was isolated and reversely transcribed into cDNA. The obtained cDNA was used to perform qRT-PCR using gene specific exon-exon-spanning primers for mRNA of anti-apoptotic (A) and pro-apoptotic genes (B).
To quantitate specific mRNA (messenger RNA) species in samples RNA was isolated, RNA concentration was measured and mRNA was transcribed into cDNA. The amount of mRNA transcripts of certain genes within a sample was quantified by employing gene specific primers and using a C-1000 Thermal cycler (Biorad). The expression of genes of interest was normalised against two or three reference genes (HRPT1, RPL_13a and B2M) using the CFX manager software. The fold induction of mRNA was calculated over untreated sample levels by the ΔΔ-Ct method.
(In qPCR the cycle at which signal appears reflects the starting amount.)

Assay [1] deals with ATM cytoplasmic translocation. Briefly: ATM relocalisation upon DNA DSB, immunofluorescence, U2OS cells. It counts as cell-based, human. The protocol: FIG. 7: Cytoplasmic accumulation of ATM. (A) Fractionation experiment with separated nuclear extracts (NE) and cytoplasmic extracts (CE). PARP1 and LDH staining served as loading and fractionation controls. Cells were pre-treated with DMSO or MW01 (5 μM) prior to irradiation and cell harvesting at indicated times. NE and CE were subjected to SDS-PAGE/WB procedure. (B) U2OS cells were seeded on cover slips 2 days before treatment. The cells were pre-treated with solvent DMSO alone or with MW01 prior to irradiation, cell fixation and subsequent immunofluorescence staining.
For immunofluorescence staining 0.95×10^5 cells were seeded in 6 well plates onto autoclaved cover slips. Cellular confluency dictated to beginning of the experiment (2-3 days from seeding). After conduction of experiments cells were washed with PBS and fixed with 4% PFA/double-distilled H2O (ddH2O) for 10 min at RT. Following two additional washing steps cells were incubated with a solution containing 0.12% glycine/0.2% saponin in PBS for 10 min and then blocked with a solution containing 10% FCS/0.2% saponin in PBS for 1 h. Primary antibody incubation was performed overnight at 4° C. (1:500 diluted in 0.2% saponin in PBS). The next day, cover slips were washed five times with a solution containing 0.2% saponin in PBS. […]

For a further assay, the target named is T1, PARP1 (Mus musculus, UniProt P11103).
T1 construct: endogenous in cells; host or cells: MEF (mouse embryonic fibroblasts)
T1 sequence (P11103 whole entry): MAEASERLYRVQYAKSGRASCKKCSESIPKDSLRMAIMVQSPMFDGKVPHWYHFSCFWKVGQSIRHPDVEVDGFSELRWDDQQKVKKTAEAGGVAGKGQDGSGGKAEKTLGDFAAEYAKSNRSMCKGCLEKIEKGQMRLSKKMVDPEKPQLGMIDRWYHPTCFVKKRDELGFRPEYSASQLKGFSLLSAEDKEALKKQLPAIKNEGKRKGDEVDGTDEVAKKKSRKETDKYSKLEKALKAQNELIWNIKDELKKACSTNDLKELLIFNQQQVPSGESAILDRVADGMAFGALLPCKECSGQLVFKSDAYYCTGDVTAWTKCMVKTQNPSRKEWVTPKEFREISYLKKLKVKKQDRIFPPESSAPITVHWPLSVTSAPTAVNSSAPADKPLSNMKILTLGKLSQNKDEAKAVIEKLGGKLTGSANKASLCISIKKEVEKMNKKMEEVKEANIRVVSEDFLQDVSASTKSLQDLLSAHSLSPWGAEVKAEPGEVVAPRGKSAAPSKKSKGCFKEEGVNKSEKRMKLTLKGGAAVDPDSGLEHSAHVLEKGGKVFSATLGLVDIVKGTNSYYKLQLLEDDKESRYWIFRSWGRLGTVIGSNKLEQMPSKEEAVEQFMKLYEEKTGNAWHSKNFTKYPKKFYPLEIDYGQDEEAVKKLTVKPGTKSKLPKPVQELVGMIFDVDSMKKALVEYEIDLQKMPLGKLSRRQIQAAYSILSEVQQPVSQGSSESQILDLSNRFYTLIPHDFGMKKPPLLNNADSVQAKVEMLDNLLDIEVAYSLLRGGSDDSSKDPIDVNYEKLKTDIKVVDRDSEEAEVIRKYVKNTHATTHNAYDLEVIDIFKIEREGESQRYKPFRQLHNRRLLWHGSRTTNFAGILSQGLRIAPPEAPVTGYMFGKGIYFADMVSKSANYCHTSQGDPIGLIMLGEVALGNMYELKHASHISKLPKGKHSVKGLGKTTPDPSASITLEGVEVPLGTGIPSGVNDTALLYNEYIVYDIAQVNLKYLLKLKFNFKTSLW
Briefly: PARP1 enzymatic activity, PAR chain formation after γ-irradiation, MEF cells. It counts as cell-based. From the text:
FIG. 10: (A) MEF cells were pre-treated with the indicated substances, irradiated and cell lysates were used for poly(ADP)-ribose probing using a specific antibody. (B) Experiment performed as described for (A), but using U2OS cells.

Assay [2] concerns IKKγ phosphorylation at S85. Briefly: IKKγ S85 phosphorylation after irradiation, WB, MEF cells. It counts as cell-based, mouse. The note with it: MEF (murine). Here is the method: FIG. 11: (A) HEK293 cells were pre-incubated with DMSO, MW01 or ATM inhibitor KU55933 and irradiated. Lysates were subjected to SDS-PAGE/WB. The specific IKKγ S85 band (lower band) was identified by induction following irradiation and by sensitivity to ATMi and λ-phosphatase (λ-PP) treatment. The asterisk indicates a non-specific band that was neither inducible nor ATMi sensitive. (B) Experiment was done as shown in (A) using MEF cells. (C) HEK293 cells were pre-treated with DMSO or MW01, irradiated and lysed. Lysates were used to immunoprecipitate IKKγ using an IKKγ antibody.

Assay [3] deals with genotoxic stress-activated NF-κB signaling. Briefly: TAK1 and p65 S536 phosphorylation after γ-irradiation, WB, HepG2 cells. It counts as cell-based, human. Here is the method: FIG. 6: (A) U2OS cells were pre-treated with DMSO or MW01 and irradiated. Stimulation of cell with IL-1β served as a positive control for IκBα and p65 phosphorylation. Cells were lysed at indicated time points and used for WB analyses. (B,C) Similar experimental setup as in (A). (D) Experiment as in (A-C), but with other time points analysed and performed with HepG2 cells. PARP1 and LDH serve as loading controls.
FIG. 9: HepG2 cells were pre-incubated with DMSO, MW01 (5 μM) or the ATM inhibitor Ku55933 (10 μM) and irradiated. After 60 min cells were harvested and processed. Immunochemical staining of Western blotting membranes was done using indicated antibodies.
FIG. 14: (A) U2OS cells were pre-treated with different concentrations of olaparib prior to co-treatment with etoposide. Whole cell lysis was performed after 90 min and cleared lysates were used for WB with indicated antibodies. (B) U2OS cells were pre-treated with DMSO, olaparib or the ATM inhibitor Ku55933 and co-treated with etoposide. Cells were harvested after 45 min and subjected to SDS-PAGE/WB. Membranes were stained with the indicated antibodies. The experiment of (B) was performed simultaneously to the experiments of (A) and (E) to control functionality of olaparib in inhibiting PAR chain formation. (C) Densitometrical analyses of (A) and two further independent experiments done as shown in (A). (D) U2OS cells were pre-treated with the substances as indicated prior to irradiation. After 90 min mRNA was isolated, transcribed into cDNA and was used for expression analyses of the indicated genes using quantitative real-time PCR (qRT-PCR). (E) HepG2 cells were pre-treated with the PARP inhibitors olaparib, 3-AB and EB-47 prior to γ-irradiation. Cells were harvested after 15 and 90 min and subjected to SDS-PAGE/WB. Membranes were stained with the indicated antibodies. Error bars equal SEM.

The subject of assay [4] is ATM substrate histone H2AX. Briefly: Phospho-H2AX immunofluorescence after etoposide, U2OS cells. It counts as cell-based, human. The note with it: after etoposide treatment. The protocol: FIG. 2: U2OS cells were pre-treated and incubated with DMSO or MW01. DNA damage was induced by administration of etoposide. After 2 h cells were fixed, nuclei were stained with DAPI. p65 and phospho-H2AX, which is indicative for DNA DSB, were stained by immunofluorescence. Images were taken at a confocal Zeiss 710 LSM with a 40× oil objective.

Turning to `COc1ccc2c(c1OC)c(=O)n1c3ccc(O)cc3c3ccnc2c31` [MW01, 12-hydroxy-6,7-dimethoxy-8H-benzo[c]indolo[3,2,1-ij][1,5]naphthyridin-8-one], in the assay on U2OS cells (8 h after γ-IR), the “BIRC3 mRNA” value is on record as “down-regulated”, the “expression of BCL2L1 mRNA” value is on record as “fully inhibited” and the “expression of XIAP mRNA” value was “moderately inhibited”. Moreover, in the assay on U2OS cells (after irradiation), the “BBC3 mRNA expression, induction” value came to 3 fold and the “PMAIP1 mRNA expression” value is recorded as “further elevated”. For the same compound, the “mRNA expression of TNFAIP3” value with U2OS cells (after γ-IR, in comparison to irradiated controls) is recorded as “abolished mRNA expression”. For the same compound, the “mRNA expression of PMAIP1” value in the assay with U2OS cells (pre-treatment without irradiation) is recorded as “already increased”. Besides, in the assay on U2OS cells (without irradiation), the “BBC3 mRNA expression” value is on record as “not influenced” and the “mRNA expression of BIRC3, XIAP or BCL2L1 in comparison to the DMSO control” value was “did not significantly change”. In assay [1], the “ATM localisation after irradiation (IF)” value is given as “predominantly localized within the nucleus”. For the same compound, the “PAR chain formation / PARP1 enzymatic activity” value at PARP1 is on record as “did not interfere with activation of PARP1 enzymatic activity”. Moreover, the “phosphorylation of IKKγ at S85” value in assay [2] was “abolished”. Besides, in assay [3] (HepG2, 5 μM, irradiated, 60 min), the “p65 S536 phosphorylation level” value was “drastically reduced”. The “TAK1 and p65 phosphorylation” value in assay [3] (HepG2, γ-IR) is reported as “abolished”. Besides, in assay [4], the “phosphorylation of the ATM substrate histone H2AX” value is on record as “did not lead to impaired phosphorylation”.
